Reference: US9725414B2, “Fungicidal N-bicycloalkyl and N-tricycloalkyl pyrazole-4-(thio)carboxamide derivatives” (priority 2011, dated 2017)

Columns and labels:
Pyrenophora teres [1] = test: Example F: in vivo preventive test on Pyrenophora teres (barley), acetone/tween/DMSO preparation; settings: 500 ppm of active ingredient, barley, grading 14 days after contamination
Method in brief: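 Barley ("Plaisant") grown at 22° C was sprayed at the 1-leaf stage (10 cm) with active ingredient in acetone/tween/DMSO/water, with solvent-only controls. After 24 h, leaves were inoculated with Pyrenophora teres spores (12 000 spores per mL) from 12-day cultures. % efficacy versus controls graded 14 days post-contamination.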

Puccinia recondita = test: Example M: in vivo preventive test on Puccinia recondita (brown rust on wheat); settings: 500 ppm of active ingredient, grading 12 days after contamination
Method in brief: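 Wheat (Scipion) sprayed with compound at 1-leaf stage, grown at 22° C. Inoculated 24 h later with a spore suspension at 100 000 spores per mL. Efficacy (%) graded 12 days after inoculation against solvent-treated controls.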

Uromyces appendiculatus = test: Example Q: in vivo preventive test on Uromyces appendiculatus (bean rust); settings: Uromyces appendiculatus on bean plants, 500 ppm of active ingredient, grading 11 days after contamination
Method in brief: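 Saxa bean plants at 2-leaf stage, grown at 24° C., sprayed preventively with compound; 24 h later inoculated with U. appendiculatus spores (150 000 spores per mL). Percent efficacy graded 11 days after inoculation versus solvent-treated controls.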

Sphaerotheca fuliginea = test: Example B: in vivo preventive test on Sphaerotheca fuliginea (powdery mildew on cucurbits), gherkin plants; settings: 500 ppm of active ingredient, grading 12 days after contamination
Method in brief: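 Gherkin plants grown at 24 °C were sprayed with compound at the Z11 cotyledon stage; controls received acetone/tween/DMSO/water without active. 24 h later, cotyledons were inoculated by spraying with Sphaerotheca fuliginea spores (100 000 spores per mL).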

Venturia inaequalis = test: Example G: in vivo preventive test on Venturia inaequalis (apple scab); settings: 100 ppm of active ingredient, evaluated 10 days after inoculation
Method: In Vivo Preventive Test on Venturia inaequalis (Apple Scab) Solvent: 24.5 parts by weight of acetone • 24.5 parts by weight of N,N-dimethylacetamide Emulsifier: 1 part by weight of alkylaryl polyglycol ether To produce a suitable preparation of active compound, 1 part by weight of active compound is mixed with the stated amounts of solvent and emulsifier, and the concentrate is diluted with water to the desired concentration. To test for preventive activity, young plants are sprayed with the preparation of active compound at the stated rate of application. After the spray coating has dried on, the plants are inoculated with an aqueous conidia suspension of the causal agent of apple scab (Venturia inaequalis) and then remain for 1 day in an incubation cabinet at approximately 20° C. and a relative atmospheric humidity of 100%. The plants are then placed in a greenhouse at approximately 21° C. and a relative atmospheric humidity of approximately 90%.

Alternaria brassicae = test: Example D: in vivo preventive test on Alternaria brassicae (leaf spot on radish); settings: 500 ppm of active ingredient, grading 6 days after contamination
Method in brief: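 Radish plants at cotyledon stage were sprayed with compound; controls got the acetone/tween/DMSO/water mix alone. After 24 h they were inoculated with Alternaria brassicae spores (50 000 spores per mL) and kept at 20 °C, 100% relative humidity. % efficacy versus controls was graded 6 days post-inoculation.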

Botrytis cinerea = test: Example O: in vivo protective test on Botrytis cinerea (beans); settings: 100 ppm of active ingredient, lesion size 2 days after inoculation
Method: In Vivo Protective Test on Botrytis cinerea (Beans)
Solvent: 24.5 parts by weight of acetone • 24.5 parts by weight of N,N-dimethylacetamide
Emulsifier: 1 part by weight of alkylaryl polyglycol ether
To produce a suitable preparation of active compound, 1 part by weight of active compound is mixed with the stated amounts of solvent and emulsifier, and the concentrate is diluted with water to the desired concentration.
To test for preventive activity, young plants are sprayed with the preparation of active compound. After the spray coating has dried on, 2 small pieces of agar covered with growth of Botrytis cinerea are placed on each leaf. The inoculated plants are placed in a darkened chamber at 20° C. and a relative atmospheric humidity of 100%.
2 days after the inoculation, the size of the lesions on the leaves is evaluated. 0% means an efficacy which corresponds to that of the untreated control, while an efficacy of 100% means that no disease is observed.

Pyrenophora teres [2] = test: Example E: in vivo preventive test on Pyrenophora teres (barley), DMF/emulsifier preparation; settings: 500 ppm of active ingredient, evaluated 7-9 days after inoculation
Method in brief: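 Young barley plants sprayed preventively with compound formulated in DMF/alkylaryl polyglycol ether emulsifier and diluted in water. One day later inoculated with aqueous Pyrenophora teres spore suspension, then held 48 h at 22 °C and 100% relative humidity.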

| Compound | Efficacy (Pyrenophora teres [1]) | Efficacy (Puccinia recondita) | Efficacy (Uromyces appendiculatus) | Efficacy (Sphaerotheca fuliginea) | Efficacy (Venturia inaequalis) | Efficacy (Alternaria brassicae) | Efficacy (Botrytis cinerea) | Efficacy (Pyrenophora teres [2]) |
| --- | --- | --- | --- | --- | --- | --- | --- | --- |
| Cn1nc(C(F)F)c(C(=O)N(C2CC2)C2CC3CCCCC3C2)c1F (centres unmarked) [Example 12] | 100% | 94% | 97% | 98% | – | – | – | – |
| Cn1nc(C(F)F)c(C(=O)N(C2CC2)C2CCCC3CCCC32)c1F (centres unmarked) [Example 19] | 100% | 100% | 100% | 100% | 100% | 100% | – | – |
| Cn1nc(C(F)F)c(C(=O)N(CC2CCC3CCCC3C2)C2CC2)c1F (centres unmarked) [Example 62] | 97% | 98% | 100% | 100% | – | – | – | – |
| Cn1nc(C(F)F)c(C(=O)N(CC2CC3CCC2C3)C2CC2)c1F (centres unmarked) [Example 71] | – | – | – | – | 100% | – | 97% | 100% |
| Cn1nc(C(F)F)c(C(=O)N(CC2(Cc3ccccc3)CC3CCC2C3)C2CC2)c1F (centres unmarked) [Example 69] | 97% | 81% | 96% | 100% | – | 96% | – | – |
| CC(C1CC2CCC1C2)N(C(=O)c1c(C(F)F)nn(C)c1F)C1CC1 (centres unmarked) [Example 93] | – | – | – | – | 100% | – | 100% | 100% |
| Cn1cc(C(=O)N(C2CC2)C2CCCC3CCCC32)c(C(F)F)n1 (centres unmarked) [Example 20] | 97% | 81% | 100% | 100% | – | – | – | – |
